From patent US8883010B2, “Polymer composition with phytochemical and dialysis membrane formed from the polymer composition” (The University of Akron, priority 2008, dated 2014) come the findings set out here.

Entries after “also recorded” stand apart in the source; their conditions may differ.

In data set [1] the test system is reactive oxygen species (ROS) in neutrophils. Kind of data set: Modified DHR (dihydrorhodamine) assay of oxygen radical generation in PMA-stimulated whole blood. It is filed as cell-based, human. Conditions: for suppression of ROS levels (in words): pure antioxidant in DMSO, no membrane/polymer, 25-500 μg/ml.
Experimental: In order to determine the effect of membranes and/or genistein on oxygen radical generation, the standard dihydrorhodamine (DHR) assay was modified as follows. The assay consisted of one positive control tube, several sample tubes and one negative control tube. The positive control tube contained 100 μl blood, 25 μl DHR, and 25 μl PMA; the total contents were made up to a total volume of 1 ml with PBS. The effect of oxygen radical generation is tested as follows, using the sample tube containing 100 μl blood, 25 μl DHR, 25 μl PMA and the appropriate sample (for example, unmodified membranes or pure genistein or genistein modified membranes). […] For the assay, two small circular samples (2×0.4 cm^2) were punched out from the cast films and placed inside the test tubes. After adding the membrane, the entire contents were incubated at 37° C. for 3 h (to simulate hemodialysis conditions) while being subjected to continuous shaking. After 3 h of incubation, the membrane samples were removed from the blood and agitated with 1 ml of PBS in order to dislodge the cells that were attached to the membrane. In the case of pure genistein (i.e., no membrane), the samples were prepared by dissolving genistein in DMSO over a wide range of concentration (25-500 μg/ml). The negative control tube contained 100 μl blood, 25 μl DHR, and the sample.
In order to normalize the data obtained from different set of experiments, the following formula was employed to express ROS level in percentage,
where the positive control represent 100% ROS and the negative control represent 0% ROS. The x, y, and z parameters represent the mean fluorescence signal obtained from the positive control, the negative control, and the samples, respectively.
For data set [2], the system named is peripheral blood mononuclear cells (PBMC). The experiment in a line: Cell viability (cytotoxicity) assay with 7-AAD dye and flow cytometry. The note with it: pure genistein, 25-500 μg/ml. It is filed as cell-based. (A flow cytometer gives signals particle by particle.)
Experimental: Cell viability assays were conducted to determine the effect of unmodified membranes, pure genistein and genistein modified membranes on whole blood. A nucleic acid dye, 7-Amino-actinomycin D (7-AAD), (BD-Via-Probe™ from BD Bioscience, CA) was used as a viability probe, which is based on uptake of 7-AAD. 7-AAD is a nucleic acid dye, which is designed in such a way that it cannot enter live cells. Fresh blood mixed with the dye was used as a negative control, whereas blood incubated with the membrane and/or genistein served as the experimental samples.
To perform the assays, 100 μl of fresh blood was pipetted into separate polypropylene tubes and mixed with 2 ml of ammonium chloride lysis buffer solution (containing 8.26 g ammonium chloride, 1 g potassium bicarbonate, and 0.037 g ethylenediamine-tetraacetic acid dissolved in 1 liter deionized water). The tubes were allowed to stand at room temperature for 10 min during which most of the red blood cells were lysed. The tubes were centrifuged at room temperature for 5 min at 1,800 rpm. […] The cells were resuspended with 500 μl of PBS and the cell suspension was analyzed using a flow cytometer (EPICS® XL-MCL™, Beckman Coulter, Calif., USA) equipped with System II™ software. […] The fluorescence signal from the dead cells was measured on the FL3 red channel (650 nm) with the flow cytometer.

In the case of Vitamin E, the “suppression of ROS levels (in words)” value in data set [1] is given as “Suppression is greater than for Vitamin E”.
On to `O=c1c(-c2ccc(O)cc2)coc2cc(O)cc(O)c12` [genistein, 5,7-dihydroxy-3-(4-hydroxyphenyl)chromen-4-one], for which, in data set [1], the “suppression of ROS levels (in words)” value is “dose-dependent reduction of ROS level; also recorded: suppress ROS levels significantly; also recorded: Suppression is greater than for Vitamin E”. In addition, in data set [1] (pure genistein in DMSO, no membrane), the “reduction of the oxygen radicals” value is on record as “about 50%”. Further, the “cytotoxicity to PBMC” value in data set [2] was “non-cytotoxic”.
